# Test results published in patent publication US4746349A, “Method and compositions for suppressing the nitrification of ammonium in plant growth medium” (American Cyanamid Company, priority 1986, dated 1988).
# Structures can show the parent of a compound that is named as a salt.
# Tests used:
# [1] = tested on: corn (Dekalb T2000, B73×LH 38); experiment: Field evaluation: yield of corn, silt loam location; type: in vivo
# Text: Field Evaluation: Field evaluations are based on the N content of corn leaf tissue and grain yield utilizing two soil types. Replicate (4X) field plots are established at two different locations, one having (I) silt loam soil and one (II) with sandy loam soil. These soils had been previously cropped to non-fertilized corn to reduce the level of residual N. Maduramicin monoammonium salt is applied (0.25, 0.125, 0.07 ppm) with NH3 (84 or 168 kg N/ha) through a "downstream" by an injection system into silt loam plots. Nitrapyrin (0.25 ppm=0.56 kg a.i./ha), nitrogen checks, benzyl alcohol (1.16L/ha) (BA) and a O nitrogen check are included for comparison. Individual replicate plot sizes are 3.04M×22.8M (4, 76-cm corn rows×22.8M long) Anhydrous ammonia are injected on 76-cm centers.
# Urea, treated or non-treated with Maduramicin monoammonium salt is broadcast on the surface of sandy loam plots. Plots are then planted with corn the day following treatment. Dekalb T2000 is planted 10 May on silt loam plots and Pioneer 3352 is planted 11 May in sandy loam plots.
# Corn ear leaf tissues collected at silking on silt loam plots or 60 days post silking (on silt loam and sandy loam plots) are collected from each plot and assayed for total N (AOAC procedures). Grain yields are determined by harvesting the two center rows×15.2 m of each plot.
# Nitrosomonas spp. = experiment: Nitrification of ammonium in soil incubated at 25° C. (ammonium recovery, nitrate accumulation); conditions: soil 25° C.; for Concentration of nitrate nitrogen / Recovery of Ammonium Nitrogen: 200 ppm N; for Effectiveness as nitrification inhibitor, in words: 20 weeks study
# Procedure, shortened: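 Ammonium recovery and nitrate accumulation read out after KCl extraction (2M, 1 h shaking) and steam distillation of ammonium, nitrite and nitrate. Soil was amended with 200 ppm N as ammonium sulfate and 0.10–0.50 ppm inhibitor, held at 50% water saturation at 25 °C, sampled 0–20 weeks in duplicate.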
smiles,measurement,setting,value
"CO[C@@H]1[C@@H](OC)[C@H](C)[C@@](O)(CC(=O)O)O[C@H]1[C@H](C)[C@H]1O[C@@]2(CC[C@@](C)([C@H]3CC[C@@](C)([C@@H]4O[C@@H]([C@H]5O[C@](C)(O)[C@H](C)C[C@@H]5C)C[C@@H]4O[C@@H]4C[C@H](OC)[C@@H](OC)[C@H](C)O4)O3)O2)C[C@H](O)[C@H]1C [Maduramicin monoammonium salt, Maduramicin]",AVERAGE YIELD 4-REPLICATES,"[1]; N 84 kg/ha, chemical 0.11 kg/ha",136.6 HECTOLITERS/HECTARE
same,AVERAGE YIELD 4-REPLICATES,"[1]; N 84 kg/ha, chemical 0.28 kg/ha",129.6 HECTOLITERS/HECTARE
same,AVERAGE YIELD 4-REPLICATES,"[1]; N 84 kg/ha, chemical 0.56 kg/ha",131.4 HECTOLITERS/HECTARE
same,AVERAGE YIELD 4-REPLICATES,"[1]; N 168 kg/ha, chemical 0.11 kg/ha",154.0 HECTOLITERS/HECTARE
same,AVERAGE YIELD 4-REPLICATES,"[1]; N 168 kg/ha, chemical 0.28 kg/ha",146.2 HECTOLITERS/HECTARE
same,AVERAGE YIELD 4-REPLICATES,"[1]; N 168 kg/ha, chemical 0.56 kg/ha",147.9 HECTOLITERS/HECTARE
same,"Effectiveness compared with 0.5 ppm nitrapyrin, in words",Nitrosomonas spp.; 0.10 ppm,not as effective as the 0.5 ppm rate of nitrapyrin
same,Concentration of nitrate nitrogen,"Nitrosomonas spp.; 0.10 ppm, week 0",18 PPM
same,Recovery of Ammonium Nitrogen,"Nitrosomonas spp.; 0.10 ppm, week 0",195 PPM
same,Concentration of nitrate nitrogen,"Nitrosomonas spp.; 0.10 ppm, week 1",20 PPM
same,Recovery of Ammonium Nitrogen,"Nitrosomonas spp.; 0.10 ppm, week 1",168 PPM
same,Concentration of nitrate nitrogen,"Nitrosomonas spp.; 0.10 ppm, week 2",19 PPM
same,Recovery of Ammonium Nitrogen,"Nitrosomonas spp.; 0.10 ppm, week 2",178 PPM
same,Concentration of nitrate nitrogen,"Nitrosomonas spp.; 0.10 ppm, week 4",24 PPM
same,Recovery of Ammonium Nitrogen,"Nitrosomonas spp.; 0.10 ppm, week 4",176 PPM
same,Concentration of nitrate nitrogen,"Nitrosomonas spp.; 0.10 ppm, week 7",75 PPM
same,Recovery of Ammonium Nitrogen,"Nitrosomonas spp.; 0.10 ppm, week 7",125 PPM
same,Concentration of nitrate nitrogen,"Nitrosomonas spp.; 0.10 ppm, week 9",59 PPM
same,Recovery of Ammonium Nitrogen,"Nitrosomonas spp.; 0.10 ppm, week 9",110 PPM
same,Concentration of nitrate nitrogen,"Nitrosomonas spp.; 0.10 ppm, week 12",152 PPM
same,Recovery of Ammonium Nitrogen,"Nitrosomonas spp.; 0.10 ppm, week 12",55 PPM
same,Concentration of nitrate nitrogen,"Nitrosomonas spp.; 0.10 ppm, week 16",153 PPM
same,Recovery of Ammonium Nitrogen,"Nitrosomonas spp.; 0.10 ppm, week 16",67 PPM
same,Concentration of nitrate nitrogen,"Nitrosomonas spp.; 0.10 ppm, week 20",134 PPM
same,Recovery of Ammonium Nitrogen,"Nitrosomonas spp.; 0.10 ppm, week 20",39 PPM
same,"Specific inhibition of nitrification through activity against Nitrosomonas spp., in words",Nitrosomonas spp.; 0.1 to 0.5 ppm,appear to specifically inhibit nitrification through activity against Nitrosomonas spp.
same,Concentration of nitrate nitrogen,"Nitrosomonas spp.; 0.25 ppm, week 0",19 PPM
same,Recovery of Ammonium Nitrogen,"Nitrosomonas spp.; 0.25 ppm, week 0",194 PPM
same,Concentration of nitrate nitrogen,"Nitrosomonas spp.; 0.25 ppm, week 1",18 PPM
same,Recovery of Ammonium Nitrogen,"Nitrosomonas spp.; 0.25 ppm, week 1",162 PPM
same,Concentration of nitrate nitrogen,"Nitrosomonas spp.; 0.25 ppm, week 2",19 PPM
same,Recovery of Ammonium Nitrogen,"Nitrosomonas spp.; 0.25 ppm, week 2",164 PPM
same,Concentration of nitrate nitrogen,"Nitrosomonas spp.; 0.25 ppm, week 4",19 PPM
same,Recovery of Ammonium Nitrogen,"Nitrosomonas spp.; 0.25 ppm, week 4",187 PPM
same,Concentration of nitrate nitrogen,"Nitrosomonas spp.; 0.25 ppm, week 7",21 PPM
same,Recovery of Ammonium Nitrogen,"Nitrosomonas spp.; 0.25 ppm, week 7",198 PPM
same,Concentration of nitrate nitrogen,"Nitrosomonas spp.; 0.25 ppm, week 9",25 PPM
same,Recovery of Ammonium Nitrogen,"Nitrosomonas spp.; 0.25 ppm, week 9",185 PPM
same,Concentration of nitrate nitrogen,"Nitrosomonas spp.; 0.25 ppm, week 12",23 PPM
same,Recovery of Ammonium Nitrogen,"Nitrosomonas spp.; 0.25 ppm, week 12",192 PPM
same,Concentration of nitrate nitrogen,"Nitrosomonas spp.; 0.25 ppm, week 16",64 PPM
same,Recovery of Ammonium Nitrogen,"Nitrosomonas spp.; 0.25 ppm, week 16",164 PPM
same,Concentration of nitrate nitrogen,"Nitrosomonas spp.; 0.25 ppm, week 20",85 PPM
same,Recovery of Ammonium Nitrogen,"Nitrosomonas spp.; 0.25 ppm, week 20",102 PPM
same,Time through which nitrification is delayed or inhibited,Nitrosomonas spp.; 0.5 ppm,≥ 20 weeks
same,Concentration of nitrate nitrogen,"Nitrosomonas spp.; 0.50 ppm, week 0",18 PPM
same,Recovery of Ammonium Nitrogen,"Nitrosomonas spp.; 0.50 ppm, week 0",194 PPM
same,Concentration of nitrate nitrogen,"Nitrosomonas spp.; 0.50 ppm, week 1",20 PPM
same,Recovery of Ammonium Nitrogen,"Nitrosomonas spp.; 0.50 ppm, week 1",162 PPM
same,Concentration of nitrate nitrogen,"Nitrosomonas spp.; 0.50 ppm, week 2",18 PPM
same,Recovery of Ammonium Nitrogen,"Nitrosomonas spp.; 0.50 ppm, week 2",166 PPM
same,Concentration of nitrate nitrogen,"Nitrosomonas spp.; 0.50 ppm, week 4",21 PPM
same,Recovery of Ammonium Nitrogen,"Nitrosomonas spp.; 0.50 ppm, week 4",170 PPM
same,Concentration of nitrate nitrogen,"Nitrosomonas spp.; 0.50 ppm, week 7",21 PPM
same,Recovery of Ammonium Nitrogen,"Nitrosomonas spp.; 0.50 ppm, week 7",194 PPM
same,Concentration of nitrate nitrogen,"Nitrosomonas spp.; 0.50 ppm, week 9",25 PPM
same,Recovery of Ammonium Nitrogen,"Nitrosomonas spp.; 0.50 ppm, week 9",193 PPM
same,Concentration of nitrate nitrogen,"Nitrosomonas spp.; 0.50 ppm, week 12",18 PPM
same,Recovery of Ammonium Nitrogen,"Nitrosomonas spp.; 0.50 ppm, week 12",189 PPM
same,Concentration of nitrate nitrogen,"Nitrosomonas spp.; 0.50 ppm, week 16",28 PPM
same,Recovery of Ammonium Nitrogen,"Nitrosomonas spp.; 0.50 ppm, week 16",209 PPM
same,Concentration of nitrate nitrogen,"Nitrosomonas spp.; 0.50 ppm, week 20",44 PPM
same,Recovery of Ammonium Nitrogen,"Nitrosomonas spp.; 0.50 ppm, week 20",175 PPM
same,"Effectiveness as nitrification inhibitor, in words",Nitrosomonas spp.; X-14868A monammonium salt,most effective nitrification inhibitor
same,"Effectiveness as nitrification inhibitor, in words",Nitrosomonas spp.; X-14868 monoammonium salt,considerably more effective than nitrapyrin
